Experimental data: patent publication US10479782B2, “Forms of lumacaftor and processes for the preparation thereof” (Mylan Laboratories LImited, priority 2015, dated 2019)

Columns and labels:
[1] = Storage stability, chemical (purity by HPLC analysis); assay type: physicochemical
Experimental: Thus, in addition to PXRD analyses, HPLC analyses were also performed. HPLC separations may be performed on an HPLC column and detector system, such as an Kromasil 100 C18 column (150×4.6 mm, 3.5 μm) or its equivalent using a UV detector set at 220 nm with a column oven temperature of about 30° C. A flow rate of 1.0 mL/min with an injection volume of 10 μL may be used, with a run time of approximately 35 minutes.
[…] The samples were tested for stability by PXRD analysis and for purity by HPLC analysis.
(§1) As an example, Table 1 below provides data collected on amorphous lumacaftor.
(§2) As another example, Table 2 below provides data collected on crystalline lumacaftor ethyl acetate solvate and the crystalline lumacaftor acetic acid solvate.

[2] = Storage stability, physical (PXRD analysis); assay type: physicochemical
Experimental: Amorphous lumacaftor as prepared by methods herein may be characterized as amorphous by powder X-ray diffraction (PXRD). Thus, samples of amorphous lumacaftor were analyzed by X-ray diffraction on a BRUKER D-8 Discover powder diffractometer equipped with a goniometer of θ/2θ configuration and Lynx Eye detector. The Cu-anode X-ray tube was operated at 40 kV and 30 mA. The experiments were conducted over the […] of 2.0°-50.0°, 0.030° step size, and 0.4 seconds step time.
(§3) Another aspect of the present invention provides a crystalline lumacaftor acetic acid solvate. The crystalline lumacaftor acetic acid solvate prepared by methods disclosed herein may be characterized by PXRD. Thus, PXRD analyses of the crystalline lumacaftor acetic acid solvate were carried out on a PANalytical, X'Pert PRO powder diffractometer equipped with goniometer of θ/θ configuration and X'Celerator detector. The Cu-anode X-ray tube was operated at 40 kV and 30 mA. The experiments were conducted over the 2θ range of 2.0°-50.0°, 0.030° step size, and 50 seconds step time.
as §3, with “The” for “Another aspect of the present invention provides a crystalline”, “ethyl acetate” for “acetic acid solvate. The crystalline lumacaftor acetic acid”, “the” for “the crystalline”, “ethyl acetate” for “acetic acid”, “is” for “was”, “0.0300” for “0.030°”
The physical and chemical stabilities of the crystalline lumacaftor acetic acid solvate and the crystalline lumacaftor ethyl acetate solvate were determined by storing samples of each at 40° C./75% relative humidity (RH) and at 25° C./60% RH for six months. The samples were tested for stability by PXRD analysis and for purity by HPLC analysis.
as §1, §2

[3] = storage at 25° C./60% RH, 1 months
[4] = storage at 25° C./60% RH, 2 months
[5] = storage at 25° C./60% RH, 3 months
[6] = storage at 25° C./60% RH, 15 days
[7] = storage at 25° C./60% RH, Initial
[8] = stored for 3 months at 5±3° C. and 25° C./60% relative humidity (RH)
[9] = storage at 25° C./60% RH, 6 months
[10] = storage at 40° C./75% RH, 1 months
[11] = storage at 40° C./75% RH, 2 months
[12] = storage at 40° C./75% RH, 3 months
[13] = storage at 40° C./75% RH, 6 months
[14] = storage at 40° C./75% RH, 15 days
[15] = storage at 40° C./75% RH, Initial
[16] = stored for 6 months at 25° C./60% and 40° C./75% relative humidity (RH)

SMILES | HPLC Purity (%) [1, 3] | HPLC Purity (%) [1, 4] | HPLC Purity (%) [1, 5] | HPLC Purity (%) [1, 6] | HPLC Purity (%) [1, 7] | PXRD [2, 3] | PXRD [2, 4] | PXRD [2, 5] | PXRD [2, 6] | PXRD [2, 7] | HPLC Purity (%) [1, 9] | HPLC Purity (%) [1, 10] | HPLC Purity (%) [1, 11] | HPLC Purity (%) [1, 12] | HPLC Purity (%) [1, 13] | HPLC Purity (%) [1, 14] | HPLC Purity (%) [1, 15] | chemical degradation on storage [1, 16] | PXRD [2, 9] | PXRD [2, 10] | also measured
Cc1ccc(NC(=O)C2(c3ccc4c(c3)OC(F)(F)O4)CC2)nc1-c1cccc(C(=O)O)c1 [Amorphous lumacaftor, 3-(6-(1-(2,2-difluorobenzo[d][1,3]dioxol-5-yl)cyclopropanecarboxamido)-3-methylpyridin-2-yl)benzoic acid] | 99.63% | 99.60% | 99.65% | 99.67% | 99.65% | Stable | Stable | Stable | Stable | Amorphous | – | – | – | – | – | – | – | – | – | – | HPLC Purity (%) ([1]; storage at 5 ± 3° C., 1 months): 99.61%; HPLC Purity (%) ([1]; storage at 5 ± 3° C., 2 months): 99.63%; HPLC Purity (%) ([1]; storage at 5 ± 3° C., 3 months): 99.64%; HPLC Purity (%) ([1]; storage at 5 ± 3° C., 15 days): 99.67%; HPLC Purity (%) ([1]; storage at 5 ± 3° C., Initial): 99.65%; chemical degradation on storage [1, 8]: no significant chemical degradation; PXRD ([2]; storage at 5 ± 3° C., 1 months): Stable; PXRD ([2]; storage at 5 ± 3° C., 2 months): Stable; PXRD ([2]; storage at 5 ± 3° C., 3 months): Stable; PXRD ([2]; storage at 5 ± 3° C., 15 days): Stable; PXRD ([2]; storage at 5 ± 3° C., Initial): Amorphous; change in PXRD pattern on storage [2, 8]: no change in PXRD pattern
Cc1ccc(NC(=O)C2(c3ccc4c(c3)OC(F)(F)O4)CC2)nc1-c1cccc(C(=O)O)c1 [Lumacaftor acetic acid solvate, 3-(6-(1-(2,2-difluorobenzo[d][1,3]dioxol-5-yl)cyclopropanecarboxamido)-3-methylpyridin-2-yl)benzoic acid] | 99.92% | 99.92% | 99.89% | 99.92% | 99.84% | Stable | Stable | Stable | Stable | Crystalline | 99.93% | 99.93% | 99.93% | 99.89% | 99.92% | 99.92% | 99.84% | neither the lumacaftor ethyl acetate solvate nor the lumacaftor acetic acid solvate display any significant chemical degradation | Stable | Stable | PXRD [2, 11]: Stable; PXRD [2, 12]: Stable; PXRD [2, 13]: Stable; PXRD [2, 14]: Stable; PXRD [2, 15]: Crystalline; change in PXRD pattern on storage [2, 16]: neither the lumacaftor ethyl acetate solvate nor the lumacaftor acetic acid solvate display any significant chemical degradation or any change in PXRD pattern
Cc1ccc(NC(=O)C2(c3ccc4c(c3)OC(F)(F)O4)CC2)nc1-c1cccc(C(=O)O)c1 [Lumacaftor ethyl acetate solvate, 3-(6-(1-(2,2-difluorobenzo[d][1,3]dioxol-5-yl)cyclopropanecarboxamido)-3-methylpyridin-2-yl)benzoic acid] | 99.93% | 99.95% | 99.92% | 99.95% | 99.97% | Stable | Stable | Stable | Stable | Crystalline | 99.95% | 99.94% | 99.95% | 99.95% | 99.95% | 99.95% | 99.97% | neither the lumacaftor ethyl acetate solvate nor the lumacaftor acetic acid solvate display any significant chemical degradation | Stable | Stable | PXRD [2, 11]: Stable; PXRD [2, 12]: Stable; PXRD [2, 13]: Stable; PXRD [2, 14]: Stable; PXRD [2, 15]: Crystalline; change in PXRD pattern on storage [2, 16]: neither the lumacaftor ethyl acetate solvate nor the lumacaftor acetic acid solvate display any significant chemical degradation or any change in PXRD pattern
